Laboratory results: publication PMC8774223, “Comparison of Antiplatelet Effects of Phenol Derivatives in Humans” (Biomolecules, 2022)
Values after ≈ are worked out from the molar mass of the structure shown. Values joined by “and” are separate entries in the source; they are usually repeats but may differ in a detail not shown here. Identical values can stand only once. “Also recorded” adds a separate entry of the source. Like-named read-outs stand apart in the source and are kept apart here. Values belong to the compound of their own block, whether it stands above or below them.

How the values were obtained:
[1] = tested on: platelet aggregation triggered by AA; experiment: Arachidonic acid (AA)-induced platelet aggregation, whole blood aggregometry; format: cell-based, human; settings: for IC50: Platelet
Experimental: (§1) Blood from 20 non-smoking, young (aged from 22 to 45 years, median 27), healthy volunteers was collected by venipuncture into plastic tubes containing heparin sodium (170 IU/10 mL; Zentiva, Prague, Czech Republic). No medication had been taken by volunteers 14 days prior blood collection and no alcohol had been consumed 12 h before the blood draw.
A total of 300 µL of whole blood was diluted with the same volume of 0.9 % sodium chloride (B.Braun, Melsungen, Germany) preheated to 37 °C and incubated with 5 µL of a tested compound dissolved in DMSO (Penta, Prague, Czech Republic) at a final concentration of 0.8% for 3 min at 37 °C. Platelet aggregation was then induced by addition of collagen (Diagnostica a.s., Czech Republic), arachidonic acid (AA) or Thrombin Receptor Activating Peptide (TRAP) (Roche Holding AG, Basel, Switzerland) and monitored for 6 min. The dose of inducer was initially set to the minimal concentration which caused maximal aggregation. The second calibration was carried out by use of standards, 4-methylcatechol in the case of AA- and collagen-triggered aggregation (Sigma-Aldrich) or vorapaxar for thrombin aggregation (Selleck Chemicals GmbH, Munich, Germany). […] For comparison, also the clinically used standard ASA was employed.

[2] = tested on: anti-inflammatory activity; design: method as in PMID 30614688, doi:10.1016/j.jff.2019.01.047; settings: 10 μM; cited from earlier work
Nrf2 = settings: cited from earlier work; for Activation of Nrf2: many cell lines, effect observed even at 5 μM
hepatic HepG2 = tested on: hepatic HepG2; design: method as in PMID 35547925, PMID 30614688, doi:10.1016/j.jff.2019.01.047; settings: cited from earlier work
[3] = tested on: platelet aggregation induced by collagen; experiment: Collagen-induced platelet aggregation, whole blood aggregometry; format: cell-based, human; settings: for IC25: Platelet, human whole blood, read-out: IC25 (Mean ± SD, μM) on Collagen-Induced Platelet Aggregation; for Effect on collagen-induced aggregation compared with ASA: comparison of 95% confidence intervals of fitted curves / IC25
Experimental: as §1, with “draw. The protocol was approved by the Ethics Committee of the Faculty of Pharmacy, Charles University on May 31, 2019.” for “draw.”
A total of 300 µL of whole blood was diluted with the same volume of 0.9 % sodium chloride (B.Braun, Melsungen, Germany) preheated to 37 °C and incubated with 5 µL of a tested compound dissolved in DMSO (Penta, Prague, Czech Republic) at a final concentration of 0.8% for 3 min at 37 °C. Platelet aggregation was then induced by addition of collagen (Diagnostica a.s., Czech Republic), arachidonic acid (AA) or Thrombin Receptor Activating Peptide (TRAP) (Roche Holding AG, Basel, Switzerland) and monitored for 6 min. The dose of inducer was initially set to the minimal concentration which caused maximal aggregation. The second calibration was carried out by use of standards, 4-methylcatechol in the case of AA- and collagen-triggered aggregation (Sigma-Aldrich) or vorapaxar for thrombin aggregation (Selleck Chemicals GmbH, Munich, Germany). The final concentrations of inducers were in the range of 0.16–2.42 µg/mL for collagen, 25–196 µM for AA and 0.8–9.8 µM for TRAP. For comparison, also the clinically used standard ASA was employed.

[4] = tested on: human monocytic cell line THP-1; design: method as in PMID 35547925, PMID 30614688, doi:10.1016/j.jff.2019.01.047; settings: cited from earlier work
plasmids = settings: 50 μM, without redox-active metals; cited from earlier work
bacterial colonies = tested on: bacterial colonies; design: method as in PMID 11351422; settings: cited from earlier work
[5] = tested on: MCF-7/S0.5 human breast cancer cell line; experiment: CellTiter 96 AQueous One Solution Cell Proliferation Assay; format: cell-based; settings: 48 h
Experimental: MCF-7/S0.5 human breast cancer cell line adapted to low-sera conditions (ECACC, Porton Down, Salisbury, UK) was used. Cells were maintained at 37 °C and 5% CO2 and were passaged once a week. Dulbecco’s Modified Eagle Medium/Nutrient Mixture F-12 (DMEM/F-12; Thermo Fisher, Waltham, MA, USA) supplemented with FBS Charcoal Stripped, antibiotics (penicillin/streptomycin) and insulin, according to cell provider instructions, was used as the growth medium. Cells were used in passages between 7 and 12.
Cell viability assay was performed using CellTiter 96® AQueous One Solution Cell Proliferation Assay (Promega, Madison, WI, USA). MCF-7 cells were seeded at a density of 80 × 10^3 cells per well in a 96-well plate. Cells were exposed to the compounds and incubated at 37 °C with CO2 5% for 48 h prior tetrazolium reagent [3-(4,5-dimethylthiazol-2-yl)-5-(3-carboxymethoxyphenyl)-2-(4-sulfophenyl)-2H-tetrazolium] addition (20 µL/well). DMSO at a final concentration of 0.1% (as it is not associated with toxicity) was used as a negative control (set to 100% viability), and sodium dodecyl sulfate (SDS 10%) as positive control. After incubation period CellTiter reagent was added to the cells and further incubated for 3 h. After this time, absorbance was recorded at a wavelength of 490 nm by use of a microplate reader (Hidex Oy, Turku, Finland). All samples were performed in triplicates and repeated at least three times.

[6] = tested on: encephalomyocarditis virus; design: method as in PMID 35558500; settings: cited from earlier work; for Antiviral potency relative to catechol: lowest tested concentration 0.4 mg/mL (approximately 3 mM)
mice = tested on: mice; design: method as in PMID 10956160, PMID 12065208; settings: cited from earlier work
rats = tested on: rats; design: method as in PMID 10956160, PMID 12065208; settings: cited from earlier work
[7] = design: method as in PMID 10956160, PMID 12065208; settings: chronic high dose studies; cited from earlier work
[8] = tested on: three different cell lines; design: method as in PMID 26885667; settings: 30 μM; cited from earlier work
platelet aggregation = settings: cited from earlier work
thrombin pathway = settings: cited from earlier work
[9] = design: method as in PMID 25571923; settings: humans, on average; cited from earlier work
[10] = Homo sapiens, read-out: IC50 class, colour key of Figure 3
[11] = human whole blood, class assigned by colour of the drawn structure, read-out: IC50 class, colour key of Figure 3
[12] = human whole blood, read-out: IC50 (Mean ± SD, μM) on Arachidonic Acid-induced Platelet Aggregation

IC50 [1, 11]: > 100 µM
IC50 [1, 12]: ~32 µM
Compound: COc1ccc(C)c(OC)c1 [2,4-dimethoxytoluene]

IC50 [1, 11]: < 3 µM
IC50 [1, 12]: 1.37 ± 0.28 µM
Compound: CCc1ccc(O)c(OC)c1 [2-methoxy-4-ethylphenol]
Anti-inflammatory activity [2]: anti-inflammatory activity was observed
Activation of the Nrf2 pathway after its suppression by lipopolysaccharide (Nrf2; 10 μM): activated the Nrf2 pathway
Activation of the Nrf2 pathway (Nrf2; only concentrations higher than 650 μM were tested): activated the Nrf2 pathway
Concentration from which mildly toxic (hepatic HepG2): about 660 μM and ~100 mg/L
IC25 [3]: 5.07 ± 4.05 µM
Concentration below which toxicity was not observed [4]: ≥ 5000 µM

IC50 [1, 11]: < 3 µM
IC50 [1, 12]: 2.57 ± 2.24 µM
Compound: COc1cc(C)ccc1O [2-methoxy-4-methylphenol]
IC25 [3]: 11.5 ± 9.05 µM
Effect on collagen-induced aggregation compared with ASA [3]: significantly more efficient than ASA

IC50 [1, 11]: < 3 µM
IC50 [1, 12]: 1.74 ± 0.17 µM
Compound: Oc1cccc(F)c1O [3-fluorocatechol]

IC50 [1, 11]: < 3 µM
IC50 [1, 12]: 2.28 ± 0.3 µM
Compound: CC(C)c1cccc(O)c1O [3-isopropylcatechol]
Cell proliferation / viability, MCF-7/S0.5 ([5]; 10 μM): not toxic
Cell proliferation / viability, MCF-7/S0.5 ([5]; 100 μM): decreased cell proliferation
IC25 [3]: 12.9 ± 21.3 µM

IC50 [1, 11]: < 3 µM
IC50 [1, 12]: 1.61 ± 0.17 µM
Compound: Cc1cccc(O)c1O [3-methylcatechol]
IC25 [3]: 7.15 ± 6.41 µM

IC50 [1, 11]: > 100 µM
IC50 [1, 12]: ~61 µM
Compound: C=CCc1ccc(OC)c(OC)c1 [4-allyl-1,2-dimethylcatechol, 4-allyl-1,2-dimethoxybenzene]
Tumors (mice): elicited liver but also other tumors
Tumors (rats): elicited liver but also other tumors
Rat plasma levels [7]: 4–46 μM and 0.66–8.25 μg/mL
Activity towards AA-induced aggregation (in words) ([1]; human whole blood): inactive; also recorded: inactive or only weakly active

IC50 [1, 11]: > 10 µM
IC50 [1, 12]: ~21 µM
Compound: Nc1ccc(O)c(O)c1 [4-aminocatechol]

IC50 [1, 11]: < 3 µM
IC50 [1, 12]: 1.29 ± 0.14 µM
Compound: CCc1ccc(O)c(O)c1 [4-ethylcatechol]
Activation of Nrf2 (Nrf2): clearly confirmed
Toxicity to cell lines [8]: not toxic
IC25 [3]: 4.61 ± 1.16 µM
Effect on collagen-induced aggregation compared with ASA [3]: significantly more efficient than ASA
Antiviral potency relative to catechol [6]: more potent

IC50 [1, 11]: < 3 µM
IC50 [1, 12]: 1.82 ± 0.21 µM
Compound: Oc1ccc(F)cc1O [4-fluorocatechol]
IC25 [3]: 4.72 ± 0.28 µM
Effect on collagen-induced aggregation compared with ASA [3]: significantly more efficient than ASA

IC50 [1, 11]: < 3 µM
IC50 [1, 12]: 2.59 ± 0.17 µM
Compound: Cc1ccc(O)c(O)c1 [4-methylcatechol, reference compound]
Antiplatelet potency relative to acetylsalicylic acid (ASA) (platelet aggregation): approximately ten times higher potency
Toxicity to cell lines [8]: not toxic
IC25 [3]: 2.66 ± 2.21 µM
Effect on thrombin pathway (thrombin pathway): no effect

IC50 [1, 11]: > 10 µM
IC50 [1, 12]: 13.3 ± 1.57 µM
Compound: O=[N+]([O-])c1ccc(O)c(O)c1 [4-nitrocatechol]
Cell proliferation / viability, MCF-7/S0.5 ([5]; 10 μM): not toxic
Cell proliferation / viability, MCF-7/S0.5 ([5]; 100 μM): decreased cell proliferation

IC50 [1, 12]: 7.24 ± 3.75 µM
Compound: CC(C)(C)c1ccc(O)c(O)c1 [4-tert-butylcatechol]

More lines, now with the values behind:

Compound: COc1ccccc1OC [1,2-dimethylcatechol, 1,2-dimethoxybenzene]
IC50 ([1]; Homo sapiens, read-out: IC50 (Mean ± SD, μM) on Arachidonic Acid-induced Platelet Aggregation): ~78 µM
IC50 [1, 10]: > 100 µM
Activity towards AA-induced aggregation (in words) ([1]; human whole blood): inactive

Compound: Nc1ccccc1O [2-aminophenol]
IC50 [1, 12]: 6.65 ± 1.06 µM

Compound: Oc1cc(Cl)cc(Cl)c1O [3,5-dichlorocatechol]
DNA damage (plasmids): no DNA damage was observed
Formation of bacterial colonies (bacterial colonies; 10 μM): blocked the formation of bacterial colonies
Antibacterial activity (bacterial colonies): Antibacterial activity was observed
Cell proliferation / viability, MCF-7/S0.5 ([5]; 10 μM): not toxic
Cell proliferation / viability, MCF-7/S0.5 ([5]; 100 μM): decreased cell proliferation
IC50 [1, 10]: > 10 µM
IC50 [1, 12]: 13.5 ± 1.57 µM

Compound: Nc1cccc(O)c1O [3-aminocatechol]
IC50 [1, 12]: 3.82 ± 0.5 µM

Compound: COc1cccc(O)c1O [3-methoxycatechol]
Antiviral potency relative to catechol [6]: more potent
IC50 [1, 12]: 7.92 ± 0.74 µM

Compound: Oc1cc(Cl)c(Cl)cc1O [4,5-dichlorocatechol]
Cell proliferation / viability, MCF-7/S0.5 ([5]; 10 μM): not toxic
Cell proliferation / viability, MCF-7/S0.5 ([5]; 100 μM): decreased cell proliferation
Cell proliferation / viability, MCF-7/S0.5 ([5]; 100 μM, listed as 4,5-dichlorcatechol): blocked cell proliferation
IC25 [3]: 9.86 ± 15.1 µM
IC50 [1, 12]: 3.35 ± 0.92 µM

Compound: Oc1ccc(Cl)cc1O [4-chlorocatechol]
DNA damage (plasmids): no DNA damage was observed
Antibacterial activity (bacterial colonies): Antibacterial activity was observed
IC50 [1, 12]: 3.66 ± 0.29 µM

Compound: CCc1ccc(O)cc1 [4-ethylphenol]
Activation of Nrf2 (Nrf2): inactive

Compound: C=Cc1ccc(O)c(O)c1 [4-vinylcatechol]
Toxicity to cell lines [8]: not toxic

Compound: CC(=O)Oc1ccccc1C(=O)O [ASA, acetylsalicylic acid, reference compound]
IC25 [3]: 26.9 ± 2.25 µM

Compound: Cc1ccccc1O [o-cresol]
Inhibition of platelet aggregation (platelet aggregation): inhibited platelet aggregation
Effect on thrombin pathway (thrombin pathway): no effect
IC50 [1, 10]: > 10 µM
IC50 [1, 12]: 12 ± 5.55 µM

Compound: Cc1ccccc1N [o-toluidine]
IC50 [1, 10]: > 100 µM
Activity towards AA-induced aggregation (in words) ([1]; human whole blood): inactive or only weakly active

Compound: O=S(=O)(O)Oc1ccccc1O [pyrocatechol-sulfate]
Plasma levels [9]: 12 µM

Compound: Oc1ccccc1O [pyrocatechol]
Antibacterial activity (bacterial colonies): Antibacterial activity was observed
Activation of Nrf2 (Nrf2): clearly confirmed
Toxicity to cell lines [8]: not toxic
IC50 antiviral activity [6]: 670 mg/L (≈ 6.08 mM)
IC50 ([6]; read-out: IC50 antiviral activity): 6000 µM
IC50 [1, 12]: 4 ± 0.45 µM
